Measurements from the METLIN SMRT retention time set (Domingo-Almenara et al. 2019).

Test: gradient 5% acetonitrile 3 min, to 50% in 2 min, to 85% in 15 min, held 3 min, 100 µL/min
Details: column: Zorbax Extend-C18 2.1 x 50 mm; eluents: water / acetonitrile, 0.1% formic acid
Procedure, shortened: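 Retention times of pure standards were taken from adduct peaks that were selected by computer and manually inspected. Over 3 months, mixtures of ~100 molecules were run by HPLC–quadrupole time-of-flight mass spectrometry in positive and negative ionization mode. The Zorbax Extend-C18 column (2.1 × 50 mm, 1.8 μm) ran at 100 μL/min in water and acetonitrile, each containing 0.1% formic acid, with 40 μL dead volume and 900 μL dwell volume.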

RP-LC retention time [s]	SMILES
600	O=C(Cn1c(=O)c2cccn2c2ccc(F)cc21)NCCCN1CCCCC1
694	O=C(CCCS(=O)(=O)Cc1ccccc1)NCc1ccccc1
1130	CCN1C(=O)COc2ccc(-c3noc(-c4ccc(OC)cc4)n3)cc21
1220	Cc1ccccc1-c1nc(-c2cccc(-c3ccnn3C)c2)no1
866	COc1ccc(Cn2nccc2NC(=O)c2cc(=O)c3cc(Cl)ccc3o2)cc1
798	O=C(Nc1ccc(F)c(Cl)c1)N1CCC(N2CCN(Cc3cccc(F)c3)C(=O)C2=O)CC1
704	CCC1CCCCN1Cc1nc(Cn2ccn3nc(-c4ccc(F)cc4)cc3c2=O)no1 (centres undefined)
800	NS(=O)(=O)c1ccc(CCNCc2ccc(-c3cc(Cl)cc(Cl)c3)o2)cc1
761	COc1ccc(CN2CC3(CCN(S(=O)(=O)c4c(C)nn(C)c4C)CC3)C2=O)cc1
698	CS(=O)(=O)c1ccc(-c2ccc(NC(=O)c3cccs3)cc2)nn1
743	COc1ccc(C(=O)N2CCC3(C2)C(=O)N(C)c2ccccc23)cc1 (centres undefined)
804	COc1ccc(-c2ccnc3nc(-c4ccccc4OC)nn23)cc1OC
567	Cc1scc2nc(C(=O)Nc3cccc(F)c3)nc(N3CCCC3)c12
873	CSc1cccc(NC(=O)N2CC=C(c3cn(C)c4ncccc34)CC2)c1
912	CN(C)c1ccc(CNc2ccc(-c3nc(-c4cccc(F)c4)no3)cn2)cc1
684	COc1ccc(-n2nnc(C(=O)N3CCOCC3)c2C)cc1Cl
673	O=C(Cc1nc(-c2ccccn2)n[nH]1)Nc1cccc(Cl)c1
735	COC(=O)c1c(C)[nH]c(C(=O)N2CCC(CC(=O)NCc3cccc(F)c3)CC2)c1C
763	CCN(CC)CCOCCOC(=O)C(CC)(CC)c1ccccc1
644	CN(C)CCCNC(=O)C1CCN(c2nc3ccc(-c4ccsc4)nc3s2)CC1
966	COc1ccc(N2CC(c3nc(-c4cccc(C(F)(F)F)c4)no3)CC2=O)cc1OC (centres undefined)
912	CCN1C(=O)C(C)(C(=O)NCc2ccc(C)cc2)Oc2cccnc21 (centres undefined)
661	CC(C)C(=O)Nc1ccc(C(=O)NCCNS(=O)(=O)c2ccc3c(c2)OCCO3)cc1

RP-LC retention time [s]	SMILES
623	NC(=O)c1cc(-c2ccccc2)n[nH]1
607	Cc1cnn(CC(=O)N2CCC3(CCC3O)CC2)c1 (centres undefined)
765	Cc1nc(SCC(=O)O)n[nH]1
1080	O=C(CCCc1nc(-c2ccccc2)no1)Nc1nc(-c2ccccc2)cs1
920	Cc1ccc(S(=O)(=O)[C@H]2CS(=O)(=O)C[C@@H]2N2CCN(c3ccccc3)CC2)cc1
1210	Cc1ccc(-c2noc(Cc3nnc(-c4ccc(C)c(F)c4)o3)n2)cc1C
975	CCOC(=O)c1c(S(=O)(=O)N2CCC(C(=O)Nc3ccc(C)c(C)c3)CC2)c(C)n(CC)c1C
1070	CCCn1cc(CCNS(=O)(=O)c2ccc(C(C)(C)C)cc2)c2cccnc21
858	CCCCNC(=O)c1nc(Nc2cccc(C)c2)c2ccccc2n1
871	CCOC(=O)c1c(C)[nH]c(C(=O)N2CCC(C(C)C(=O)N3CCN(c4ccccc4)CC3)CC2)c1C (centres undefined)
829	Cc1csc(-c2ccc(N3CCN(C(=O)c4nccc5ccccc45)CC3)nc2)n1
821	CCC(C)NC(=O)N1CC=C(c2cn(C(C)C)c3ncccc23)CC1 (centres undefined)
588	COCCNC(=O)NCCn1c(-c2ccc(C)cc2)nc2ccccc21
546	Cc1ccc(CN2CCC(n3c(C)cnc3-c3cccnc3)C2)s1 (centres undefined)
799	Cc1ccc(S(=O)(=O)N2CCC(CCC(=O)O)CC2)cc1
653	CN1C(=O)CCc2cc(NC(=O)c3ccoc3)ccc21
635	CCN1C(=O)c2cccc3c(S(=O)(=O)Nc4cccc(C)n4)ccc1c23
646	Cc1ccc(F)c2c(=O)c3c([nH]c12)CCN(CC(=O)Nc1ccc(Cl)cc1)C3
678	Cc1ccc(CNC(=O)c2ccc(-c3cncnc3)nc2)o1
580	CN(C)CCC(c1ccccc1)c1ccccn1 (centres undefined)
630	Cc1nc(C)n(CC(=O)Nc2ccc(F)cc2)c(=O)c1C
873	Cc1ccccc1CNC(=O)C1=C2CCCN2c2ccccc2S1(=O)=O
716	Cc1[nH]c(C)c(S(=O)(=O)N2CCC(C(=O)N3CCc4ccccc43)CC2)c1C(=O)N1CCCC1

RP-LC retention time [s]	SMILES
931	CCn1nccc1-c1cccc(-c2noc(CNS(=O)(=O)c3ccc(F)cc3)n2)c1
623	O=C(Nc1ccc(F)cc1)c1nnc(COCC(=O)N2CCN(c3ccccn3)CC2)s1
595	COc1cn(CC(=O)Nc2ccc(C)c(Cl)c2)c(CN2CCN(C(C)=O)CC2)cc1=O
753	O=C(Nc1ccc(C2(C(=O)NCC3CCCO3)CC2)cc1)c1cccs1 (centres undefined)
668	COc1ncccc1CNC(=O)NCc1ccc(F)cc1
637	O=C(Nc1cccc(-c2cn3cccnc3n2)c1)c1ccccc1[N+](=O)[O-]
679	Cc1ccn2cc(-c3ccc(NS(=O)(=O)c4ccc(-c5csc(C)n5)s4)cc3)nc2n1
688	CC(=O)c1cccc(NC(=O)C(C)Oc2ccc(=O)n(-c3ccc(F)cc3)n2)c1 (centres undefined)
736	CC(=O)N1CCc2cc(C(=O)NCc3ccccc3)ccc21
802	Cc1ccc(N(Cc2nc3nc(C)cc(C)n3n2)C(=O)c2cccs2)cc1
780	O=C(Cc1nnc(-c2cnccn2)o1)Nc1cccc(C(F)(F)F)c1
884	O=S(=O)(c1ccc(Cl)cc1)c1ccc(N2CCN(c3ncccn3)CC2)nn1
767	COCCn1ccc2nc(C)c(C(=O)NCCc3c[nH]c4ccccc34)cc2c1=O
638	CCCNC(=O)C1CCN(c2ccc(SCC(=O)Nc3ccc(C(=O)OC)cc3)nn2)CC1
841	COc1cccc(-c2noc(-c3cc(N4CCN(c5ccccn5)CC4)nc4ccccc34)n2)c1OC
1020	O=c1c2cc(-c3cccs3)nn2cnn1Cc1nc(-c2ccc3c(c2)OCO3)no1
813	CCOc1ccccc1CNC(=O)C1CCCN(c2ncnc3c2oc2ccccc23)C1 (centres undefined)
808	COc1ccc(NC(=O)Cn2c(=O)n(-c3ccccc3)c3ncccc32)c(OC)c1
1120	COc1ccc(-c2noc(Cn3cnc4c(cnn4-c4ccc(Cl)cc4)c3=O)n2)cc1
647	COc1cc(CCC(=O)N2CCN(c3cc(=O)n(C)c(=O)n3C)CC2)cc(OC)c1OC
656	COc1ccc(C2(C(=O)N3CCCC(Cn4cnc5cccnc54)C3)CC2)cc1 (centres undefined)
746	COc1ccc2nc(NC3=NCN(Cc4ccccc4)CN3)nc(C)c2c1
692	CCN1CCn2cc(S(=O)(=O)Nc3ccc(C(=O)OC)cc3)cc2C1=O

RP-LC retention time [s]	SMILES
714	Cc1ccc(CNC(=O)CCC2CCN(c3cc(NC4CC4)ncn3)CC2)cc1
778	Cc1ccsc1C(=O)N1CCC(Nc2ncnc3c2CCC3)CC1
801	O=C(CC1CCCC1)N1CCCC(c2nc(-c3ccccc3)n[nH]2)C1 (centres undefined)
1130	CCOc1ccc(-c2noc(Cn3ccn4nc(-c5ccc(Cl)cc5)cc4c3=O)n2)cc1OC
585	CC(C)(C)c1ccc(OCC(O)CN)cc1 (centres undefined)
952	COc1cc(C(C[N+](=O)[O-])c2c(-c3ccccc3)[nH]c3ccccc23)cc(OC)c1OC (centres undefined)
608	CC(C)CN1CCn2cc(C(=O)NCc3cc(F)ccc3F)nc2C1
794	O=C(Nc1ccc(F)cc1)N1CCC(N2CCN(Cc3ccccc3)C2=O)CC1
994	CC(C)Cn1cc(S(=O)(=O)Nc2ccc(F)c(F)c2)c2cccnc21
717	Cc1nnc(-c2cccc(Cl)c2)nc1NC(C)C
878	C[C@H](Cc1ccc(O)c(O)c1)[C@@H](C)Cc1ccc(O)c(O)c1
1100	CC1CCN(c2cnn(CC(=O)Nc3cccc(C(C)C)c3)c(=O)c2Cl)CC1
843	COc1cccc(CN2N=C(C(=O)N3CCCC3)S(=O)(=O)c3ccccc32)c1
559	Cc1ccc(CN2CC(=O)N(CCc3ccccn3)C(c3cccs3)C2=O)cc1 (centres undefined)
1170	CC1CCN(S(=O)(=O)c2cc(C(=O)Nc3ccc(F)c(Cl)c3)n(C)c2)CC1
586	CN1C(=O)Cc2cc(NC(=O)c3ccno3)ccc21
826	Cc1ccc(Nc2c(-c3cccc(Br)c3)nc3cccc(C)n23)cc1
808	Cc1ccc(Nc2nc(C)cc(N3CCN(S(=O)(=O)c4ccc(F)c(F)c4)CC3)n2)cc1
681	Cc1nc(-c2cccnc2)nc2c1CCC(=O)N2Cc1ccco1
860	CO[C@H]1C(=O)N(C(C)C)[C@H]1C1CCN(S(=O)(=O)c2cccc(F)c2)CC1
